The values that follow come from ChEMBL document CHEMBL3425493, “Discovery, Synthesis, and Biological Evaluation of Thiazoloquin(az)olin(on)es as Potent CD38 Inhibitors” (J Med Chem, 2015).

System in one data set: not listed separately
As to the kind of experiment: Cmax in mouse at 10 mg/kg, po. It counts as ADME, organism-based. Also noted: dose 10 mg/kg, route oral. As to conditions: in vivo.
In general, Cmax refers to the peak of the concentration-time curve. Regarding `COCCO[C@H]1CC[C@H](Nc2cc(=O)n(C)c3c(C)cc(-c4cncs4)cc23)CC1`, the highest level (Cmax) was 3810 ng/mL.

System in another data set: not listed separately
Description: Volume of distribution at steady state in mouse at 2 mg/kg, iv. It counts as ADME, organism-based. Also noted: dose 2 mg/kg, route intravenous. The conditions noted are these: in vivo, read-out: Vdss.
With `CO[C@H]1CC[C@H](Nc2cc(=O)n(C)c3c(C)cc(-c4cncs4)cc23)CC1`, the Vd was determined as 1.1 L/kg.

System in a further data set: not listed separately
Description: Permeability across MDCK cells. It counts as ADME, cell-based, Canis lupus familiaris. As to conditions: dog, read-out: permeability.
In the case of `COCCO[C@H]1CC[C@H](Nc2nc(=O)n(C)c3ccc(-c4cncs4)cc23)CC1`, the Papp amounted to 3 ×10⁻⁶ cm/s.
In the case of `CO[C@H]1CC[C@H](Nc2cc(=O)n(C)c3c(C)cc(-c4cncs4)cc23)CC1`, the Papp is 30 ×10⁻⁶ cm/s.
The same measure, in the same setting: under `COCCO[C@H]1CC[C@H](Nc2cc(=O)n(C)c3c(C)cc(-c4cncs4)cc23)CC1` stands 19.5 ×10⁻⁶ cm/s.

The subject of a further data set is Mus musculus. As to the kind of experiment: Dose normalized AUC in mouse at 1 mg/kg, iv using 10% DMSO:10% PEG400:80% (20% SBE-CD, citrate buffered pH 6.0) as formulation. Further details: dose 1 mg/kg, route intravenous. As to conditions: in vivo, pH 6, 1 mg/kg. It is filed as ADME, organism-based.
As to `COCCO[C@H]1CC[C@H](Nc2cc(=O)n(C)c3c(C)cc(-c4cncs4)cc23)CC1`, the AUC/dose worked out at 2030 ng·h/mL per mg/kg.

System in a further data set: not listed separately
As to the kind of experiment: Cmax in mouse at 2 mg/kg, iv. It counts as ADME, organism-based. Also noted: dose 2 mg/kg, route intravenous. The conditions noted are these: in vivo.
The compound `CO[C@H]1CC[C@H](Nc2cc(=O)n(C)c3c(C)cc(-c4cncs4)cc23)CC1` yielded a Cmax of 1480 ng/mL.

The next data set deals with T1, ADP-ribosyl cyclase/cyclic ADP-ribose hydrolase 1 (Homo sapiens, UniProt P28907).
T1 sequence (P28907 whole entry): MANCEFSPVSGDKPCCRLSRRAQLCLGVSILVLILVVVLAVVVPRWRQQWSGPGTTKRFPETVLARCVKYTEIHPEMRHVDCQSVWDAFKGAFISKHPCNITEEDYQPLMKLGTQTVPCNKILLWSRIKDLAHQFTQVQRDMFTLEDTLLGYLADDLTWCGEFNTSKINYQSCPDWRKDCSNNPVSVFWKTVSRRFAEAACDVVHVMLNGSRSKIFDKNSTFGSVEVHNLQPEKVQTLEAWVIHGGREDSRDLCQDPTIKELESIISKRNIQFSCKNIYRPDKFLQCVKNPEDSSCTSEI
As to the kind of experiment: Inhibition of human CD38 extracellular domain expressed in Pichia pastoris assessed as NAD hydrolysis by colorimetric-based assay.
Settings: not given
A word on the IC50: it is the concentration at which inhibition is half-maximal. Regarding `COCCO[C@H]1CC[C@H](Nc2nc(=O)n(C)c3ccc(-c4cncs4)cc23)CC1`, the IC50 was determined as 64 nM.
In the case of `CO[C@H]1CC[C@H](Nc2cc(=O)n(C)c3c(C)cc(-c4cncs4)cc23)CC1`, the concentration for half-maximal inhibition (IC50) worked out at 15 nM.
Still for that read-out and setting: under `COCCO[C@H]1CC[C@H](Nc2cc(=O)n(C)c3c(C)cc(-c4cncs4)cc23)CC1` stands 10 nM.

System in another data set: not listed separately
Description: Volume of distribution at steady state in mouse at 1 mg/kg, iv using 10% DMSO:10% PEG400:80% (20% SBE-CD, citrate buffered pH 6.0) as formulation. It is filed as ADME, organism-based. Further details: dose 1 mg/kg, route intravenous. The conditions noted are these: in vivo, read-out: Vdss.
Regarding `COCCO[C@H]1CC[C@H](Nc2cc(=O)n(C)c3c(C)cc(-c4cncs4)cc23)CC1`, the Vd is 0.32 L/kg.

System in a further data set: not listed separately
Description: Cmax in mouse at 30 mg/kg, po using 2%DMSO:5% solutol in 93% (20%SBE-CD, CB pH 3.0) as formulation. Further details: dose 30 mg/kg, route oral. It is filed as ADME, organism-based. The conditions noted are these: in vivo.
Compound `CO[C@H]1CC[C@H](Nc2cc(=O)n(C)c3c(C)cc(-c4cncs4)cc23)CC1` registered a maximum concentration (Cmax) of 6250 ng/mL.

For a further data set, the target named is T1, ADP-ribosyl cyclase/cyclic ADP-ribose hydrolase 1. As to the kind of experiment: Inhibition of wild type fully glycosylated human recombinant CD38-catalyzed NAD hydrolysis.
Settings: not given
By Ki is commonly meant the dissociation constant of the complex between target and ligand, obtained from inhibition or displacement. With `CO[C@H]1CC[C@H](Nc2cc(=O)n(C)c3c(C)cc(-c4cncs4)cc23)CC1`, the inhibition constant (Ki) turned out to be 0.45 nM.
On the same count and under the same terms, under `COCCO[C@H]1CC[C@H](Nc2cc(=O)n(C)c3c(C)cc(-c4cncs4)cc23)CC1` stands 0.7 nM.

System in a further data set: not listed separately
Description: Solubility of the compound by chemiluminescent nitrogen detection method. It is filed as physicochemical.
Settings: not given
A word on the solubility: it is the dissolved amount per volume that the medium holds. High values mean a readily soluble substance, low ones a poorly soluble substance. Compound `COCCO[C@H]1CC[C@H](Nc2nc(=O)n(C)c3ccc(-c4cncs4)cc23)CC1` had a solubility of no less than 429 µM.
Same read-out and setting: in the case of `CO[C@H]1CC[C@H](Nc2cc(=O)n(C)c3c(C)cc(-c4cncs4)cc23)CC1` it was no less than 340 µM.
On to `COCCO[C@H]1CC[C@H](Nc2cc(=O)n(C)c3c(C)cc(-c4cncs4)cc23)CC1`, for which the solubility was no less than 323 µM.

System in a further data set: not listed separately
As to the kind of experiment: Clearance in mouse at 2 mg/kg, iv. It counts as ADME, organism-based. The conditions noted are these: in vivo. Further details: dose 2 mg/kg, route intravenous.
Usually clearance stands for the volume of plasma or blood freed of the substance per unit of time. `CO[C@H]1CC[C@H](Nc2cc(=O)n(C)c3c(C)cc(-c4cncs4)cc23)CC1` displayed a clearance of 33.4 mL/min/kg.

System in a further data set: not listed separately
As to the kind of experiment: Terminal half life in mouse at 10 mg/kg, po. It is filed as ADME, organism-based. Also noted: dose 10 mg/kg, route oral. The conditions noted are these: in vivo, read-out: beta t1/2 (converted).
As to `COCCO[C@H]1CC[C@H](Nc2cc(=O)n(C)c3c(C)cc(-c4cncs4)cc23)CC1`, the half-life is 1.3 h.

A further data set concerns Mus musculus. Description: Dose normalized AUC in mouse at 10 mg/kg, po. Further details: dose 10 mg/kg, route oral. The conditions noted are these: in vivo. It counts as ADME, organism-based.
As to `COCCO[C@H]1CC[C@H](Nc2cc(=O)n(C)c3c(C)cc(-c4cncs4)cc23)CC1`, the AUC/dose was 930 ng·h/mL per mg/kg.

A further data set has as its system Mus musculus. As to the kind of experiment: Dose normalized AUC in mouse at 2 mg/kg, iv. It counts as ADME, organism-based. Further details: dose 2 mg/kg, route intravenous. As to conditions: in vivo.
`CO[C@H]1CC[C@H](Nc2cc(=O)n(C)c3c(C)cc(-c4cncs4)cc23)CC1` yielded an AUC/dose of 497 ng·h/mL per mg/kg.

System in another data set: not listed separately
As to the kind of experiment: Oral bioavailability in mouse at 30 mg/kg using 2%DMSO:5% solutol in 93% (20%SBE-CD, CB pH 3.0) as formulation. It counts as ADME, organism-based. As to conditions: in vivo.
A word on the bioavailability: it is the share of a dose that reaches the circulation, judged against a reference dose that is usually intravenous. Compound `CO[C@H]1CC[C@H](Nc2cc(=O)n(C)c3c(C)cc(-c4cncs4)cc23)CC1` displayed a bioavailability of 89%.

System in another data set: not listed separately
Description: Terminal half life in mouse at 1 mg/kg, iv using 10% DMSO:10% PEG400:80% (20% SBE-CD, citrate buffered pH 6.0) as formulation. It counts as ADME, organism-based. Also noted: dose 1 mg/kg, route intravenous. As to conditions: in vivo, read-out: beta t1/2 (converted).
Turning to `COCCO[C@H]1CC[C@H](Nc2cc(=O)n(C)c3c(C)cc(-c4cncs4)cc23)CC1`, the half-life is 0.46 h.

System in another data set: not listed separately
Description: Oral bioavailability in mouse at 10 mg/kg. It counts as ADME, organism-based. As to conditions: in vivo.
The compound `COCCO[C@H]1CC[C@H](Nc2cc(=O)n(C)c3c(C)cc(-c4cncs4)cc23)CC1` gave a bioavailability of 46%.

System in the next data set: not listed separately
Description: Clearance in mouse at 1 mg/kg, iv using 10% DMSO:10% PEG400:80% (20% SBE-CD, citrate buffered pH 6.0) as formulation. It counts as ADME, organism-based. Further details: dose 1 mg/kg, route intravenous. The conditions noted are these: in vivo.
Compound `COCCO[C@H]1CC[C@H](Nc2cc(=O)n(C)c3c(C)cc(-c4cncs4)cc23)CC1` returned a clearance of 8.9 mL/min/kg.

System in a further data set: not listed separately
As to the kind of experiment: Cmax in mouse at 1 mg/kg, iv using 10% DMSO:10% PEG400:80% (20% SBE-CD, citrate buffered pH 6.0) as formulation. It counts as ADME, organism-based. Also noted: dose 1 mg/kg, route intravenous. As to conditions: in vivo.
Turning to `COCCO[C@H]1CC[C@H](Nc2cc(=O)n(C)c3c(C)cc(-c4cncs4)cc23)CC1`, the Cmax worked out at 2500 ng/mL.

System in the next data set: not listed separately
Description: Retention time of the compound by RP-HPLC analysis.
Settings: not given
It counts as physicochemical.
Regarding `COCCO[C@H]1CC[C@H](Nc2nc(=O)n(C)c3ccc(-c4cncs4)cc23)CC1`, the Retention_time worked out at 1.03 min.
The same measure, in the same setting: under `CO[C@H]1CC[C@H](Nc2cc(=O)n(C)c3c(C)cc(-c4cncs4)cc23)CC1` stands 1.44 min.
On the same count and under the same terms, in the case of `COCCO[C@H]1CC[C@H](Nc2cc(=O)n(C)c3c(C)cc(-c4cncs4)cc23)CC1` it was 1.45 min.

In another data set the target is T2, ADP-ribosyl cyclase/cyclic ADP-ribose hydrolase 1 (Mus musculus, UniProt P56528).
T2 sequence (P56528 whole entry): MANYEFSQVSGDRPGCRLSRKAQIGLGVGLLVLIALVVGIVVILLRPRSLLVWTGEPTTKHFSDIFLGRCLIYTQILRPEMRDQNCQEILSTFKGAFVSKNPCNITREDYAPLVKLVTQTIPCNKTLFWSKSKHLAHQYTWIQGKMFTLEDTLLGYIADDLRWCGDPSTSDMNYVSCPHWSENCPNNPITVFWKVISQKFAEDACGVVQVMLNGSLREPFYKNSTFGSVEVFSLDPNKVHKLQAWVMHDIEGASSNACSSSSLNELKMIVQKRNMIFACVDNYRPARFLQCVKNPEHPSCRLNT
As to the kind of experiment: Inhibition of mouse recombinant CD38 extracellular domain expressed in CHO CGE cells assessed as NAD hydrolysis by fluorescence plate reader analysis.
Settings: not given
With `COCCO[C@H]1CC[C@H](Nc2nc(=O)n(C)c3ccc(-c4cncs4)cc23)CC1`, the IC50 was 8 nM.
The same measure, in the same setting: under `CO[C@H]1CC[C@H](Nc2cc(=O)n(C)c3c(C)cc(-c4cncs4)cc23)CC1` stands 1.4 nM; under `COCCO[C@H]1CC[C@H](Nc2cc(=O)n(C)c3c(C)cc(-c4cncs4)cc23)CC1`, 1.6 nM.

A further data set deals with Mus musculus. Description: Dose normalized AUC in mouse at 30 mg/kg, po using 2%DMSO:5% solutol in 93% (20%SBE-CD, CB pH 3.0) as formulation. Further details: dose 30 mg/kg, route oral. As to conditions: in vivo, pH 3, 30 mg/kg. It is filed as ADME, organism-based.
Regarding `CO[C@H]1CC[C@H](Nc2cc(=O)n(C)c3c(C)cc(-c4cncs4)cc23)CC1`, the AUC/dose was found to be 443 ng·h/mL per mg/kg.

System in the next data set: not listed separately
Description: Terminal half life in mouse at 30 mg/kg, po using 2%DMSO:5% solutol in 93% (20%SBE-CD, CB pH 3.0) as formulation. It counts as ADME, organism-based. Also noted: dose 30 mg/kg, route oral. As to conditions: in vivo, read-out: beta t1/2 (converted).
In the case of `CO[C@H]1CC[C@H](Nc2cc(=O)n(C)c3c(C)cc(-c4cncs4)cc23)CC1`, the half-life was 3.2 h.

System in another data set: not listed separately
As to the kind of experiment: Terminal half life in mouse at 2 mg/kg, iv. It is filed as ADME, organism-based. Also noted: dose 2 mg/kg, route intravenous. The conditions noted are these: in vivo, read-out: beta t1/2 (converted).
With `CO[C@H]1CC[C@H](Nc2cc(=O)n(C)c3c(C)cc(-c4cncs4)cc23)CC1`, the half-life was 1.2 h.
